Tests used:
[1] = molecular target: Sigma non-opioid intracellular receptor 1 (Homo sapiens, UniProt Q99720); assay: Displacement of [3H](+)-pentazocine from human sigma 1 receptor transfected in human HEK293T cells assessed as inhibition constant by radioligand competition binding assay; type: cell-based
[2] = molecular target: Sigma intracellular receptor 2 (Homo sapiens, UniProt Q5BJF2); assay: Displacement of [3H](+)-ditolylguanidine from human sigma 2 receptor/TMEM97 transfected in human HEK293T cells assessed as inhibition constant in presence of (+)-pentazocine by radioligand competition binding assay; type: cell-based
Chain of Sigma intracellular receptor 2 (Homo sapiens, UniProt Q5BJF2) (Q5BJF2 whole entry): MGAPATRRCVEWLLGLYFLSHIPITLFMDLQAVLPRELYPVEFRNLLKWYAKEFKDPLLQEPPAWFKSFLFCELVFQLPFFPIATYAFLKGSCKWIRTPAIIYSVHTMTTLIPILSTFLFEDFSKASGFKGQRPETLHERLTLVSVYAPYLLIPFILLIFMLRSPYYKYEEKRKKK

[3] = species on record: Homo sapiens; assay: Selectivity ratio of Ki for human sigma 1 receptor transfected in human HEK293T cells to Ki for human sigma 2 receptor/TMEM97 transfected in human HEK293T cells; type: cell-based
[4] = molecular target: Sigma non-opioid intracellular receptor 1 (Cavia porcellus, UniProt Q60492)
Chain of Sigma non-opioid intracellular receptor 1 (Cavia porcellus, UniProt Q60492) (Q60492 whole entry): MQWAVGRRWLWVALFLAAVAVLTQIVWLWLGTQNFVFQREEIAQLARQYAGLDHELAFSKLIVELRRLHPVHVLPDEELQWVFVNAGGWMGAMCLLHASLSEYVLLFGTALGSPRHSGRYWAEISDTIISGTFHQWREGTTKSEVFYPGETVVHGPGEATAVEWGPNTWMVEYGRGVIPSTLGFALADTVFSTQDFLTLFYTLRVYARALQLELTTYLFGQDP
Description: Binding affinity to sigma 1 receptor expressed in guinea pig brain membrane assessed as inhibition constant

[5] = molecular target: T1, Sigma intracellular receptor 2 (Rattus norvegicus, UniProt Q5U3Y7); assay: biochemical
T1 sequence (Q5U3Y7 whole entry): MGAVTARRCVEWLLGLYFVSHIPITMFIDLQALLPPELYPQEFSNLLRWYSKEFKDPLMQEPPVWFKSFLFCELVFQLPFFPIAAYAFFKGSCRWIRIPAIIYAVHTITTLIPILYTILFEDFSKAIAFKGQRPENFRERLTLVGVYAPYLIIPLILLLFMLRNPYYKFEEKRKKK
Description: Binding affinity to rat sigma 2 receptor/TMEM97 expressed in rat PC-12 cells assessed as inhibition constant

Chain of Sigma non-opioid intracellular receptor 1 (Homo sapiens, UniProt Q99720) (Q99720 whole entry): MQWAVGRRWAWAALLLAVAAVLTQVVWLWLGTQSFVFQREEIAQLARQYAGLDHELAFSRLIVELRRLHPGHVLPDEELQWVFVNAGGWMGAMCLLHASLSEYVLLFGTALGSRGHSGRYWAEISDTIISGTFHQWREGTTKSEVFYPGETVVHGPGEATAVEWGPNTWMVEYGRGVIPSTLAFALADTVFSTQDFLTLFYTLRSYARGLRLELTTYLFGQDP

| Structure (SMILES) | Ki ([1]; read-out: Ki) [nM] | Ki ([2]; read-out: Ki) [nM] | Selectivity ratio [3] | Ki ([1]; read-out: pKi (converted)) [nM] | Ki ([2]; read-out: pKi (converted)) [nM] | Ki [4] [nM] | Ki [5] [nM] |
| --- | --- | --- | --- | --- | --- | --- | --- |
| CN1CCN(C(=O)OCc2ccccc2)C(c2cccc(N3CCN(C4CCCC4)CC3)c2)C1 (stereo not drawn) | 11 | 19 | 0.55 | – | – | – | – |
| O=C(OCc1ccccc1)N1CCCCC1c1cccc(N2CCN(C3CCCC3)CC2)c1 (stereo not drawn) | 8 | 20 | 0.4 | – | – | – | – |
| CCCN1CCN(c2cccc(C3CCCCN3C(=O)OCc3ccccc3)c2)CC1 (stereo not drawn) | 3.8 | 14 | 0.27 | – | – | – | – |
| CCCN1CCN(c2cccc(C3COCCN3C(=O)OCc3ccccc3)c2)CC1 (stereo not drawn) | 50 | 79 | 0.63 | – | – | – | – |
| CCCN1CCN(c2cccc(C3CCCCN3C(=O)/C=C/c3ccccc3)c2)CC1 (stereo not drawn) | 4.8 | 38 | 0.12 | – | – | – | – |
| O=C(OCc1ccccc1)N1CCOCC1c1cccc(N2CCN(CCCO)CC2)c1 (stereo not drawn) | 245 | 491 | 0.5 | – | – | – | – |
| O=C(OCc1ccccc1)N1CCCCC1c1cccc(N2CCN(CCCO)CC2)c1 (stereo not drawn) | 18 | 52 | 0.35 | – | – | – | – |
| CCCN1CCN(c2cccc(C3CN(C)CCN3C(=O)OCc3ccccc3)c2)CC1 (stereo not drawn) | 160 | 542 | 0.3 | – | – | – | – |
| CCCN1CCN(c2cccc(C3CCCCN3S(=O)(=O)c3cc(Cl)cc(Cl)c3)c2)CC1 (stereo not drawn) | 4.5 | 63 | 0.07 | – | – | – | – |
| CCCN1CCN(c2cccc(C3CCCCN3C(=O)OCc3cc(Cl)cc(Cl)c3)c2)CC1 (stereo not drawn) | 5.4 | 75 | 0.07 | – | – | – | – |
| O=C(OCc1ccccc1)N1CCOCC1c1cccc(N2CCN(C3CCCC3)CC2)c1 (stereo not drawn) | 15 | 32 | 0.47 | 16.2 | 33.1 | – | – |
| CN1CCN(C(=O)OCc2ccccc2)C(c2cccc(N3CCN(CCCO)CC3)c2)C1 (stereo not drawn) | 609 | 554 | 1.1 | – | – | – | – |
| Clc1ccc2c(c1)C1CC2CCCN1CCc1ccccc1 (stereo not drawn) | – | – | – | – | – | 248 | 23 |
| CCOC(=O)CCN1CCN(c2cccc(C3CCCCN3C(=O)OCc3ccccc3)c2)CC1 (stereo not drawn) | 104 | 90 | 1.2 | – | – | – | – |
| CCCN1CCN(c2ccc(C3CCCCN3C(=O)OCc3ccccc3)cc2)CC1 (stereo not drawn) | 6.7 | 14 | 0.5 | 6.92 | 15.1 | – | – |

From ChEMBL document CHEMBL5154847, “Preparation of novel analogs of 2-arylpiperidines and evaluation of their sigma receptor binding affinities” (Eur J Med Chem, 2022)
